# Patent publication US8835472B2, “Compounds, pharmaceutical compositions and uses thereof” (Boehringer Ingelheim International GmbH, priority 2010, dated 2014)
# Target: human ACC2 (Homo sapiens (Human), UniProt O00763)
# Test: ACC2 assay, spectrophotometric 384 well assay (NADH-linked, coupled lactate dehydrogenase/pyruvate kinase reaction)
# Assay type: biochemical
# Conditions: hACC2 construct lacking the 128 N-terminal amino acids; 25° C., 340 nm over 15 minutes
# Description: Spectrophotometric 384 Well Assay
# Malonyl CoA formation by acetyl CoA carboxylases is stoichometrically linked to the consumption of ATP. ACC2 activity is measured in a NADH-linked kinetic method measuring ADP generated during the ACC reaction using a coupled lactate dehydrogenase/pyruvate kinase reaction.
# For biological testing, a human ACC2 construct which lacks the 128 amino acids at the N-terminus for increased solubility (nt 385-6966 in Genbank entry AJ575592) is cloned. The protein is then expressed in insect cells using a baculoviral expression system. Protein purification is performed by anion exchange.
# All compounds are dissolved in dimethyl sulfoxide (DMSO) to a concentration of 10 mM.
# Assay reactions are then carried out in 384-well plates, with hACC2 in an appropriate dilution and at final assay concentrations (f.c.) of 100 mM Tris (pH 7.5), 10 mM trisodium citrate, 25 mM KHCO3, 10 mM MgCl2, 0.5 mg/mL BSA, 3.75 mM reduced L-glutathione, 15 U/mL lactate dehydrogenase, 0.5 mM phosphoenolpyruvate, 15 U/mL pyruvate kinase, compounds at different concentrations at final DMSO concentrations of 1%.
# The enzymatic reaction is then started by addition of a mixture of NADH, acetyl Coenzyme A (both 200 μM f.c.) and ATP (500 uM f.c.). The decrease of the optical density (slope S) is then determined at 25° C. at a wavelength of 340 nm over 15 minutes in a spectrophotometric reader.
# Each assay microtiter plate contains wells with vehicle instead of compound as controls for the non-inhibited enzyme (100% CTL; ‘HIGH’) and wells without acetyl-CoA as controls for non-specific NADH degradation (0% CTL; ‘LOW’).
# The slope S is used for calculation of % CTL=(S(compound)−S(‘LOW’))/(S(‘HIGH’)−S(‘LOW’))*100. Compounds will give values between 100% CTL (no inhibition) and 0% CTL (complete inhibition).
# For IC50 value determination, the sample slope in the presence of the test compound after subtraction of the low controls (S(compound)−S(‘LOW’)) are used. An IC50 value is derived from the compound slopes at different dosages after subtraction of the low controls (S(compound)−S(‘LOW’)) by non-linear regression curve fitting (equation y=(A+((B−A)/(1+((C/x)^D))))).
# Chain of human ACC2 (O00763 129-2458): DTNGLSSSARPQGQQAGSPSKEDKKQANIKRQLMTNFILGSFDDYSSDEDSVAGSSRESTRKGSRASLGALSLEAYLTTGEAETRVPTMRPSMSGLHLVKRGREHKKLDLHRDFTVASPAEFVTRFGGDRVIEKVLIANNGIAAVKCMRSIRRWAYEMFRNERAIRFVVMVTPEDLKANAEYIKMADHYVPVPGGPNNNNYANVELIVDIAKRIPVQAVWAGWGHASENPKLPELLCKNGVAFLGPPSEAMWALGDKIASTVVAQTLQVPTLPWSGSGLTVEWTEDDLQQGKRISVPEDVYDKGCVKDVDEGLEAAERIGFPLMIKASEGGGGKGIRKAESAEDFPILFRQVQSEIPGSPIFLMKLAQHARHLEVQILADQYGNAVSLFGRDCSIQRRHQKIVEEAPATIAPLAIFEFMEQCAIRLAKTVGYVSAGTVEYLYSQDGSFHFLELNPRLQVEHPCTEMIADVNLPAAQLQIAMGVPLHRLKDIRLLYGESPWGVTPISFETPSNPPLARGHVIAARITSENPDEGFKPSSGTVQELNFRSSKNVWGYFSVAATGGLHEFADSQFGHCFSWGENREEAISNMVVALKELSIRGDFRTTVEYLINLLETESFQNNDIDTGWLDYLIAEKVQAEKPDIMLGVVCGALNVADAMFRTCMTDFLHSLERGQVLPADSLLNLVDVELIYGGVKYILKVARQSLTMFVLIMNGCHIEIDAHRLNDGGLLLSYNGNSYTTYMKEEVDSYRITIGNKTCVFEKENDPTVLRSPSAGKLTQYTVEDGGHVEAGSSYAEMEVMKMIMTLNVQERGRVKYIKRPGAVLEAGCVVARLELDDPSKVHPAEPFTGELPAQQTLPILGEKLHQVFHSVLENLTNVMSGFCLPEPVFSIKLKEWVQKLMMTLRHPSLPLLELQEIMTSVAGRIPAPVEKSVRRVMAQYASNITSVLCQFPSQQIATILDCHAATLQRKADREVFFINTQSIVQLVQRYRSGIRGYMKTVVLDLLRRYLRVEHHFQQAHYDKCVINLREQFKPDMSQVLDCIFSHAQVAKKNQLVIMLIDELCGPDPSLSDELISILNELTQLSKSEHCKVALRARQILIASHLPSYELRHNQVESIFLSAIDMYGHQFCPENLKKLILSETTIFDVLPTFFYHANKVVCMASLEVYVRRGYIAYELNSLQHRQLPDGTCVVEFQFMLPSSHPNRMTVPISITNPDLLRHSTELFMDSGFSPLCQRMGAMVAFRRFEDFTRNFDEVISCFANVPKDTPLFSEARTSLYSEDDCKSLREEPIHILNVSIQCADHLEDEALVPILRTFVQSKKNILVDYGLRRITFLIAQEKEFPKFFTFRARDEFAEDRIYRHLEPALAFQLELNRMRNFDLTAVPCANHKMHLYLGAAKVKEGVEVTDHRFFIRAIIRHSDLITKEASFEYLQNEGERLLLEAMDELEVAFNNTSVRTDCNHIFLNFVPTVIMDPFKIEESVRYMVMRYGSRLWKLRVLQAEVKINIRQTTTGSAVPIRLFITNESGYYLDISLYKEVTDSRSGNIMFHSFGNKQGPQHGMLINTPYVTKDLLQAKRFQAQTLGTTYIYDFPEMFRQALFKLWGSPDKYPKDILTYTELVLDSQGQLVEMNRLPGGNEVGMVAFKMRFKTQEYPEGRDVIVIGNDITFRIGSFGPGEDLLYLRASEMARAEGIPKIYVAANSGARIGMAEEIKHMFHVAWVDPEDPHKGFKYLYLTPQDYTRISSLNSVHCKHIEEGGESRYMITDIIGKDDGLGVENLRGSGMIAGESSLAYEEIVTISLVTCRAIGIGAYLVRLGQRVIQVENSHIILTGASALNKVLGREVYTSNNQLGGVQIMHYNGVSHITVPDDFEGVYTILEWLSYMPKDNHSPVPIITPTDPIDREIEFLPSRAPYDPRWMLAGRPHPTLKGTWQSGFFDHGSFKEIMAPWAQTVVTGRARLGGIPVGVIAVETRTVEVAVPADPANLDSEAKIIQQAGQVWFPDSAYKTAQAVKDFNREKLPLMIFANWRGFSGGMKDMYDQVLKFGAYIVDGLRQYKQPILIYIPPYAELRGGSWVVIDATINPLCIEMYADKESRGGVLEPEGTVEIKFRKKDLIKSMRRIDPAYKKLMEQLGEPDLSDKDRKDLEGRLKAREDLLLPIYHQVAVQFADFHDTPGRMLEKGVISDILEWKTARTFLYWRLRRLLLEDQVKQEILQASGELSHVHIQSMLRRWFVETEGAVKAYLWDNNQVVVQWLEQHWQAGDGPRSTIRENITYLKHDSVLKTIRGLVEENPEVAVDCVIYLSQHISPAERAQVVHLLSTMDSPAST
row,Compound,IC50 [nM]
1,"COCCN(C)c1nccc(C#Cc2ccc(CC(C)NC(C)=O)cc2)n1 (stereo not drawn) [Example 11.1, N-(1-(4-((2-((2-Methoxyethyl)(methyl)amino)pyrimidin-4-yl)ethynyl)phenyl)propan-2-yl)acetamide]",1200
2,"CC(=O)NC(C)Cc1ccc(C#Cc2ccc(Cl)cc2)cc1 (stereo not drawn) [Example 1.1, N-(1-(4-((4-Chlorophenyl)ethynyl)phenyl)propan-2-yl)acetamide]",530
3,CCNc1ncc(C#Cc2ccc(CC(C)NC(=O)OC)cc2)cn1 (stereo not drawn) [Example 13.41],2400
4,CC(=O)NC(C)c1ccc(C#Cc2ccc(OC(C)C)cc2)cc1 (stereo not drawn) [Example 2.47],360
5,CC(=O)NC(C)Cc1ccc(C#Cc2ccc(Oc3cncnc3)nc2)cc1 (stereo not drawn) [Example 2.26],930
6,CC(=O)NC(C)Cc1ccc(C#Cc2ccc(OCc3cncs3)cc2)cc1 (stereo not drawn) [Example 9.28],690
7,CC(Cc1ccc(C#Cc2cnc(NCc3ccncc3)nc2)cc1)NC(=O)C1CC1 (stereo not drawn) [Example 13.37],2600
8,CCOc1cc(C#Cc2ccc(CC(C)NC(=O)N(C)C)cc2)ccn1 (stereo not drawn) [Example 20.2],600
9,"CC(=O)NC(C)Cc1ccc(C#Cc2ccc(C(=O)N3CCCCC3)cc2)cc1 (stereo not drawn) [Example 8.1, N-(1-(4-((4-(piperidine-1-carbonyl)phenyl)ethynyl)phenyl)propan-2-yl)acetamide]",500
10,CCC(C)Oc1ccc(C#Cc2ccc(CCC(C)NC(C)=O)cc2)cc1 (stereo not drawn) [Example 14.15],140
11,CC(=O)NC(C)Cc1ccc(C#Cc2cnc(N3CCC4(CC4)C3)nc2)cc1 (stereo not drawn) [Example 13.72],190
12,"CCCOc1ccc(C#Cc2ccc(C(C)CNC(C)=O)cc2)cc1 (stereo not drawn) [Example 32.1, N-{2-[4-(4-Propoxy-phenylethynyl)-phenyl]-propyl}-acetamide]",70
13,CC(=O)NC(C)Cc1ccc(C#Cc2ccc(N3CCOCC3)cc2)cc1 (stereo not drawn) [Example 2.73],640
14,CCOc1ccc(C#Cc2ccc(CCC(C)NC(C)=O)cc2)cc1 (stereo not drawn) [Example 14.10],100
15,CCCOc1ccc(C#Cc2ccc(C(C)NC(C)=O)cc2)c(OC)c1 (stereo not drawn) [Example 2.51],1300
16,CC(=O)NC(C)Cc1ccc(C#Cc2cnc(OCCC(C)C)nc2)cc1 (stereo not drawn) [Example 12.19],1200
17,CCOc1ccc(C#Cc2ccc(CC(C)NC(=O)c3cnon3)cc2)cc1 (stereo not drawn) [Example 4.72],940
18,CC(C)COc1ccc(C#Cc2ccc([C@H](C)NC(=O)C3CC3)cc2)cc1 [Example 14.48],580
19,CCCOc1nccc(C#Cc2ccc(CC(C)NC(C)=O)cc2)n1 (stereo not drawn) [Example 12.8],2200
20,CCCc1ccc(C#Cc2ccc(C(C)NC(C)=O)cc2)cc1 (stereo not drawn) [Example 2.46],410
21,CC(=O)NC(C)Cc1ccc(C#Cc2cccc(C(=O)N(C)Cc3ccncc3)c2)cc1 (stereo not drawn) [Example 8.39],13400
22,CC(=O)NC(C)Cc1ccc(C#Cc2ccc(N(C)C)cc2)cc1 (stereo not drawn) [Example 1.19],1500
23,CC(=O)NC(C)Cc1ccc(C#Cc2cnn(-c3ccccc3)c2)cc1 (stereo not drawn) [Example 2.79],450
24,CC(=O)NC(C)Cc1ccc(C#Cc2ccc(C(=O)O)cc2)cc1 (stereo not drawn) [Example 1.5],2400

row,Compound,IC50 [nM]
1,CC#CCN(CC(C)C)c1nccc(C#Cc2ccc(CC(C)NC(C)=O)cc2)n1 (stereo not drawn) [Example 11.25],1800
2,CC(C)Oc1ccc(C#Cc2ccc([C@H](C)NC(=O)C3CC3)cc2)cc1 [Example 14.28],3400
3,CC(Cc1ccc(C#Cc2cnc(OC3CCC3)nc2)cc1)NC(=O)N(C)C (stereo not drawn) [Example 12.29],70
4,COc1ccc(C#Cc2ccc(CCC(C)NC(C)=O)cc2)cn1 (stereo not drawn) [Example 14.8],1300
5,CC(=O)NC(C)Cc1ccc(C#Cc2cnc(OC(C)C(F)(F)F)nc2)cc1 (stereo not drawn) [Example 12.38],260
6,CC(=O)NC(C)Cc1ccc(C#Cc2cccc(C(=O)NC3CCC3)c2)cc1 (stereo not drawn) [Example 8.34],1200
7,COC(=O)NC(C)Cc1ccc(C#Cc2cnc(NC(C)C)nc2)cc1 (stereo not drawn) [Example 13.38],690
8,CC(Cc1ccc(C#Cc2cnc(NC3CCC3)nc2)cc1)NC(=O)N(C)C (stereo not drawn) [Example 13.27],120
9,CC(=O)NC(C)Cc1ccc(C#Cc2ccc3c(c2)CCC3=O)cc1 (stereo not drawn) [Example 2.76],5800
10,COC(=O)NC(C)Cc1ccc(C#Cc2cnc(N3CCC3)nc2)cc1 (stereo not drawn) [Example 13.40],2200
11,CCOc1ccc(C#Cc2ccc(C(C)NC(=O)Nc3ccc(N(C)C)cc3)cc2)cc1 (stereo not drawn) [Example 6.1],30000
12,CC(=O)NC(C)Cc1ccc(C#Cc2ccc(OC3CCOCC3)cc2)cc1 (stereo not drawn) [Example 9.12],160
13,CCC(C)Oc1nccc(C#Cc2ccc(CC(C)NC(C)=O)cc2)n1 (stereo not drawn) [Example 12.7],3600
14,CC(=O)NC(C)Cc1ccc(C#Cc2cnc(N(C)C3CCCC3)nc2)cc1 (stereo not drawn) [Example 13.16],190
15,CC(=O)NC(C)Cc1ccc(C#Cc2cnc(NC3CCCC3)nc2)cc1 (stereo not drawn) [Example 13.8],220
16,CC(=O)NC(C)Cc1ccc(C#Cc2cnc(OCC(C)C)nc2)cc1 (stereo not drawn) [Example 12.11],670
17,CCOc1ccc(C#Cc2ccc(CC(C)NC(=O)CCC#N)cc2)cc1 (stereo not drawn) [Example 4.13],680
18,CC(=O)NC(C)Cc1ccc(C#Cc2ccc(C3CC3)cn2)cc1 (stereo not drawn) [Example 2.80],740
19,CCOc1ccc(C#Cc2ccc(CCNC(C)=O)cc2)cn1 [Example 14.36],2300
20,CC(=O)NC(C)Cc1ccc(C#Cc2cccc(OC(F)F)c2)cc1 (stereo not drawn) [Example 1.7],4900
21,CC(=O)NC(C)Cc1ccc(C#Cc2cccc(OCCN3CCCCC3)c2)cc1 (stereo not drawn) [Example 9.9],9200
22,CC(Cc1ccc(C#Cc2ccc(C(C)C)cc2)cc1)NC(=O)C1CC1 (stereo not drawn) [Example 2.57],570
23,CC(Cc1ccc(C#Cc2cnc(NC3CC3)nc2)cc1)NC(=O)C1CC1 (stereo not drawn) [Example 13.48],1300
24,CC(=O)N[C@@H](C)c1ccc(C#Cc2cnc(OCc3ccccc3)nc2)cc1 [Example 12.60],540

row,Compound,IC50 [nM]
1,CC(=O)NC(C)Cc1ccc(C#Cc2ccc(-c3ccc(F)cc3)cn2)cc1 (stereo not drawn) [Example 1.16],120
2,CC(=O)NC(C)Cc1ccc(C#Cc2ccc(OCc3cc(C)on3)cc2)cc1 (stereo not drawn) [Example 9.27],640
3,CC(Cc1ccc(C#Cc2cnc(OC3CCC3)nc2)cc1)NC(=O)c1cncs1 (stereo not drawn) [34.1],170
4,COC(=O)NC(C)Cc1ccc(C#Cc2cnc(NC3CC3)nc2)cc1 (stereo not drawn) [Example 13.36],1600
5,CCOc1ccc(C#Cc2ccc(CC(C)NC(=O)CC#N)cc2)cc1 (stereo not drawn) [Example 4.9],400
6,COC(=O)CN(C)c1nccc(C#Cc2ccc(CC(C)NC(C)=O)cc2)n1 (stereo not drawn) [Example 11.48],10300
7,CC(=O)NC(C)Cc1ccc(C#Cc2ccnc(N(C)Cc3ccccc3)n2)cc1 (stereo not drawn) [Example 11.45],530
8,COc1ncc(C#Cc2ccc(C(C)CNC(=O)c3cn[nH]c3)cc2)cn1 (stereo not drawn) [Example 4.80],7700
9,COC(=O)NC(C)Cc1ccc(C#Cc2cnc(NCc3ccncc3)nc2)cc1 (stereo not drawn) [Example 13.28],3400
10,CCOc1ccc(C#Cc2ccc(CC(C)NC(=O)c3cc[nH]n3)cc2)cc1 (stereo not drawn) [Example 4.16],1600
11,CC(=O)NC(C)Cc1ccc(C#Cc2ccnc(N3CCN(C)CC3)n2)cc1 (stereo not drawn) [Example 11.37],14300
12,CC(=O)NC(C)Cc1ccc(C#Cc2ccc(CCO)cc2)cc1 (stereo not drawn) [Example 2.18],2200
13,CC(=O)NC(C)Cc1ccc(C#Cc2ccc(C(=O)N3CCCC3)cc2)cc1 (stereo not drawn) [Example 8.45],1400
14,CC(=O)NC(C)Cc1ccc(C#Cc2ccc(OC(F)F)cc2)cc1 (stereo not drawn) [Example 2.7],760
15,CCOc1ccc(C#Cc2ccc(CC(C)NC(=O)C3(C#N)CC3)cc2)cc1 (stereo not drawn) [Example 4.63],920
16,CCOc1ccc(C#Cc2ccc(CC(C)NC(=O)C3CNC3)cc2)cc1 (stereo not drawn) [Example 4.34],600
17,CC(=O)NC(C)Cc1ccc(C#Cc2ccc(Oc3ccncc3)cc2)cc1 (stereo not drawn) [Example 10.2],1200
18,CC(=O)NC(C)Cc1ccc(C#Cc2cccc(C(=O)N3CCCC3)c2)cc1 (stereo not drawn) [Example 8.48],6200
19,CC(=O)NC(C)c1ccc(C#Cc2ccc(OC3CCCC3)nc2)cc1 (stereo not drawn) [Example 2.43],450
20,COc1ccc(C#Cc2ccc(CC(C)NC(C)=O)cc2)nc1 (stereo not drawn) [Example 3.11],4300
21,CC(=O)NC(C)Cc1ccc(C#Cc2cnc(OCc3ccccn3)nc2)cc1 (stereo not drawn) [Example 12.57],1800
22,CCC(C)Nc1ncc(C#Cc2ccc(CC(C)NC(C)=O)cc2)cn1 (stereo not drawn) [15.1],160
23,CC(=O)NC(C)Cc1ccc(C#Cc2cccc(C(=O)N3CCN(C(C)C)CC3)c2)cc1 (stereo not drawn) [Example 1.9],8400
24,CC(=O)NC(C)Cc1ccc(C#Cc2ccc(OCC3CC3(F)F)cc2)cc1 (stereo not drawn) [Example 9.40],50
